Columns and labels:
HDAC9 = biological target: T1, HDAC9 (Homo sapiens, UniProt Q9UKV0); assay: HDAC isoform assay, HDAC9; type: biochemical
T1 construct: purchased BioMol

MJ cells = assay: MTS cell viability assay, MJ; type: cell-based; details: 72 hr, read-out: MJ, IG50, MTS
Method: The MTS cell viability assay was used to determine the potency of proliferation inhibitor with. MTS measures mitochondrial dehydrogenase activity and serves as surrogate readout for the number of viable cells.
For MTS assay, cells were plated in 96-well plates at 2000 cells per well and incubated in the presence of compounds for 72 hr. MTS was added to each well as instructed by manufacture (Promega) and plates were incubated for 4 h at 37° C. The absorbance of each well was measured at 490 nm using a microplate reader.

HDAC6 = biological target: T2, HDAC6 (Homo sapiens, UniProt Q9UBN7); assay: HDAC isoform assay, HDAC6
T2 sequence (Q9UBN7 1-1215): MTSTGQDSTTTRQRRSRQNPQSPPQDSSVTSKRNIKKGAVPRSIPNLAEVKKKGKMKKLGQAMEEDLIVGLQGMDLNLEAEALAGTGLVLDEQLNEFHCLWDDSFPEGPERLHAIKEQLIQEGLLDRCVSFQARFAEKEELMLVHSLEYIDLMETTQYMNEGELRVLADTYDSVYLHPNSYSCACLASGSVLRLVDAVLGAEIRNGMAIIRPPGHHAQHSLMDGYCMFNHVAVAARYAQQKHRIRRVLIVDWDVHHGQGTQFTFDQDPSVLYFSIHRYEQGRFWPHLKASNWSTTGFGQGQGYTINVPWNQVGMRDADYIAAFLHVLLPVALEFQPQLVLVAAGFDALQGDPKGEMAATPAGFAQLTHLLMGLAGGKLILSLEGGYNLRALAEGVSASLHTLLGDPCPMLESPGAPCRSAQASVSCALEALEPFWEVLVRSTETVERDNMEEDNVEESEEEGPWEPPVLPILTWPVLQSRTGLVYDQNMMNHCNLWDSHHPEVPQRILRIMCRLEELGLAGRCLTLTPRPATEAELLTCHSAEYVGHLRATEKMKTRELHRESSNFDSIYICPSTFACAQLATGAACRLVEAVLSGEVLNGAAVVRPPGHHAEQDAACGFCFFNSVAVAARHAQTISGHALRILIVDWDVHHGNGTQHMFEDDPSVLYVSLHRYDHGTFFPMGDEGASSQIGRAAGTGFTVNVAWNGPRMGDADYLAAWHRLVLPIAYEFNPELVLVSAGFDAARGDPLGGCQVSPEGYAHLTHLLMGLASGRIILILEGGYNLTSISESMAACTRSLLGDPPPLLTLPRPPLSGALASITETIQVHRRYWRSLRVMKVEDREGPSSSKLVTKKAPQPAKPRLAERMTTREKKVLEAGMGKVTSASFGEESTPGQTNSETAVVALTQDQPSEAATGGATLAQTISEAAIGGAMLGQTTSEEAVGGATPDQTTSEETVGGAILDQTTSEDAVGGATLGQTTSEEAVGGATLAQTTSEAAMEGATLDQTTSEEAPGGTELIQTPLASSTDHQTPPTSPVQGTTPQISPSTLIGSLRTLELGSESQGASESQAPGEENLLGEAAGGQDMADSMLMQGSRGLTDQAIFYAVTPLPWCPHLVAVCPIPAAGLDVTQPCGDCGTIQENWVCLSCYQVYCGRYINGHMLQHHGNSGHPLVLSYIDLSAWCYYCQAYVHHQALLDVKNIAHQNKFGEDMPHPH

HDAC4 = biological target: T3, HDAC4 (Homo sapiens, UniProt P56524); assay: HDAC isoform assay, HDAC4; type: biochemical; details: substrate KI-177; read-out: HDAC4, IC50, ELISA (KI-177)
T3 construct: purchased BioMol
T3 sequence (P56524 whole entry, canonical isoform): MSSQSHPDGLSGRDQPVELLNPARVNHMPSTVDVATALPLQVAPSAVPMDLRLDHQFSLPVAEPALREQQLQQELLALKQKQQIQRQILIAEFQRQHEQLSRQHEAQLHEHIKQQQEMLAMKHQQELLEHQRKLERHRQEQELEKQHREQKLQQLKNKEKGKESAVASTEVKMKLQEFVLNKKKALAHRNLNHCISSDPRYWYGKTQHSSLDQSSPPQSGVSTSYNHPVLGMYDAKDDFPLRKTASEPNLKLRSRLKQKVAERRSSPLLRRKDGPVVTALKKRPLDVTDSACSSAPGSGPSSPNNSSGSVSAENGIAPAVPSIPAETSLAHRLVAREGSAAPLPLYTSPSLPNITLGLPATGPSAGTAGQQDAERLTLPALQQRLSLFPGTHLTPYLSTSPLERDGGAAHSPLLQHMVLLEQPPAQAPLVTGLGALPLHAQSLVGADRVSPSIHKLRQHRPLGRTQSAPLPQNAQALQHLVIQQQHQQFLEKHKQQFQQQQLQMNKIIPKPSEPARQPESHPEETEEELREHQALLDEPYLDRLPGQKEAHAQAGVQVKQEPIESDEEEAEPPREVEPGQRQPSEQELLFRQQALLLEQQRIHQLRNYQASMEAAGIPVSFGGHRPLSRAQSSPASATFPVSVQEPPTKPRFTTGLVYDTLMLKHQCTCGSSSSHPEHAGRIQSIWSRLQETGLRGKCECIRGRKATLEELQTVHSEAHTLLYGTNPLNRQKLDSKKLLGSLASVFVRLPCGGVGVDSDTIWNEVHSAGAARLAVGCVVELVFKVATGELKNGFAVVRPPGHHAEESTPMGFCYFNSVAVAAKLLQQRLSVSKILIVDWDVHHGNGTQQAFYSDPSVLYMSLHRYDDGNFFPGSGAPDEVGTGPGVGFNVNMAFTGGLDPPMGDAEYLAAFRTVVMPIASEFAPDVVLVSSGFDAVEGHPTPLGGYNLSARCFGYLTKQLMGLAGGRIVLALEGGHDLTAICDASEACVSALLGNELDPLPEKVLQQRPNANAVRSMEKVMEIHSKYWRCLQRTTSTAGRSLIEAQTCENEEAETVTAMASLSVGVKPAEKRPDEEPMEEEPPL

T1 sequence (Q9UKV0 whole entry, canonical isoform): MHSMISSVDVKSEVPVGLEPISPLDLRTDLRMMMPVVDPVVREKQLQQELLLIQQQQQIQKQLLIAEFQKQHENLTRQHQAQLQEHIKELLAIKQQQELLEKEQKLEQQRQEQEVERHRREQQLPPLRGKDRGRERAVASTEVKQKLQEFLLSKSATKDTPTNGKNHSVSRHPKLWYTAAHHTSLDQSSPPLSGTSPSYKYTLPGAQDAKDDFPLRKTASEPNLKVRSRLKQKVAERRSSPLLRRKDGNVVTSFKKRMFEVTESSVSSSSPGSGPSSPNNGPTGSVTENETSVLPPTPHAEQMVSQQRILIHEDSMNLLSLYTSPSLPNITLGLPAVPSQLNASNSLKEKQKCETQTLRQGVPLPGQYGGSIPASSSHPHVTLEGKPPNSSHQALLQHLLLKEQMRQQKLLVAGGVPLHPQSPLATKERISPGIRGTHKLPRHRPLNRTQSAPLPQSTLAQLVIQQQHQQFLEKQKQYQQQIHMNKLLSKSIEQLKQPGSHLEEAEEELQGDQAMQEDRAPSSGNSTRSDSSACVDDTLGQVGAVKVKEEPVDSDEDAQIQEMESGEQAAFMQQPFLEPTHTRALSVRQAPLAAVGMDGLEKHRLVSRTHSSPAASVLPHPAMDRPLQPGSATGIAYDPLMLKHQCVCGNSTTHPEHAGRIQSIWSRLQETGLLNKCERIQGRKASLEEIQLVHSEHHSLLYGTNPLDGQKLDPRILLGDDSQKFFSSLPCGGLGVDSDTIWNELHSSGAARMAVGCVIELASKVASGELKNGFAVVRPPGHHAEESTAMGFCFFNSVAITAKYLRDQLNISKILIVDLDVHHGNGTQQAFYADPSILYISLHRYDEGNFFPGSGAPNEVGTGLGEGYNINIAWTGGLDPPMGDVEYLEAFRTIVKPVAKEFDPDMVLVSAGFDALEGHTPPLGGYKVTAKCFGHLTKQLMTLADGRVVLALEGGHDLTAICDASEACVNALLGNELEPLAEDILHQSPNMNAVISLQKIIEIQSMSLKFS

SMILES | IC50 (HDAC9) | IC50 (MJ cells) | IC50 (HDAC6) | IC50 (HDAC4)
O=C(CCCCCNC(=O)c1cn2c3c(cccc13)CCC2)NO [compound 2, N-[6-(hydroxyamino)-6-oxohexyl]-5,6-dihydro-4H-pyrrolo[3,2,1-ij]quinoline-1-carboxamide] | 106 nM | 5000 nM | 67.2 nM | 
O=C(CCCCCCNC(=O)c1cn2c3c(cccc13)CCC2)NO [compound 3, N-[7-(hydroxyamino)-7-oxoheptyl]-5,6-dihydro-4H-pyrrolo[3,2,1-ij]quinoline-1-carboxamide] | 413 nM | 120 nM | 158 nM | 40.5 nM
O=C(CCCCCNC(=O)C(=O)c1cn2c3c(cccc13)CCC2)NO [compound 8, 6-{[5,6-dihydro-4H-pyrrolo[3,2,1-ij]quinolin-1-yl(oxo)acetyl]amino}-N-hydroxyhexanamide] |  | 7680 nM | 77.6 nM | 
O=C(CCCNC(=O)C(=O)c1cn2c3c(cccc13)CCC2)NO [compound 9, 4-{[5,6-dihydro-4H-pyrrolo[3,2,1-ij]quinolin-1-yl(oxo)acetyl]amino}-N-hydroxybutanamide] |  | 4110 nM | 692 nM | 
O=C(CCCCCCNC(=O)Nc1cn2c3c(cccc13)CCC2)NO [compound 11, 7-[(5,6-dihydro-4H-pyrrolo[3,2,1-ij]quinolin-1-ylcarbamoyl)amino]-N-hydroxyheptanamide] | 88.7 nM | 470 nM | 66.4 nM | 40.4 nM
O=C(CCCCCCNC(=O)C(=O)c1cn2c3c(cccc13)CCC2)NO [compound 12, 7-{[5,6-dihydro-4H-pyrrolo[3,2,1-ij]quinolin-1-yl(oxo)acetyl]amino}-N-hydroxyheptanamide] | 1060 nM | 130 nM | 134 nM | 298 nM
O=C(CCCCCNC(=O)Nc1cn2c3c(cccc13)CCC2)NO [compound 13, 6-[(5,6-dihydro-4H-pyrrolo[3,2,1-ij]quinolin-1-ylcarbamoyl)amino]-N-hydroxyhexanamide] | 97.2 nM |  | 63.2 nM | 
